According to patent US11253540B2, “Composition including glycosaminoglycan derivative and chemokine receptor activity regulator” (Seikagaku Corporation, priority 2015, dated 2022):

How the values were obtained:
laser-induced CNV [1] = experiment: Laser-induced CNV models of rat: CNV area in flat mounts 10 days after intravitreal administration; type: in vivo; set-up: key to Test results, CNV area vs. DMSO, t-test: **: P < 0.01 (vs. DMSO), t-test; #: P < 0.05 (vs. Ki19003), t-test; N.S.: Not Significant (vs. DMSO), t-test; key to Test results, CNV area vs. DMSO, Dunnett's test: *: P < 0.05 (vs. DMSO), Dunnett's test; N.S.: Not Significant (vs. DMSO), Dunnett's test; #: P < 0.05; ##: P < 0.01 (vs. GW766994), Dunnett's test; key to Test results, CNV area vs. PBS, t-test: *: P < 0.05 (vs. PBS), t-test; N.S.: Not Significant (vs. PBS), t-test; CNV area, mean: unit not given here; conditions: for CNV area, mean: 5 μL/eye intravitreal once, 10 days
Protocol: Laser-induced CNV models of rat were prepared, and neovascularization inhibitory effect was examined with respect to intravitreal administration of Composition 10 or Ki19003. BN/CrlCrlj rats (male, CHARLES RIVER LABORATORIES JAPAN, INC.) were used for the preparation of animal models. […] The retina around the optic disk was irradiated with a laser beam to induce CNV. Used for the laser beam irradiation were SCOPISOL solution for eye, Fundus 5.4 mm Laser Lens, a laser photocoagulation device and a slit lamp illumination system. Immediately after the laser beam irradiation, 5 μL/eye of the test substance was administered once into the vitreous bodies of both eyes. Immediately after the administration, one drop of an antimicrobial drug ([…] Ophthalmic Solution 0.5%) was instilled. After 10 days from the preparation, the models were euthanized with CO2. The eyeballs were extracted and immersed in 10% neutral buffered solution of formalin (room temperature, about 60 minutes). Eye cups were prepared, washed with PBS, dehydrated with methanol and immersed in PBS containing 1% bovine serum albumin and 0.5% Triton X-100 (room temperature, about 60 minutes). The retina was removed, and 60 μL of 0.5% fluorescein Griffonia simplicifolia lectin I, FITC-conjugate was added to the eye cups, and the eye cups were allowed to stand (under refrigeration, overnight). By this treatment, vascular endothelial cells of CNV were fluorescently stained with FITC-lectin. Eight slits were made radially in each of the eye cups to thereby obtain flat mounts. These flat mounts were washed twice with PBS containing 0.1% Triton X-100 and embedded on a glass slide with about 120 μL of Prolong Gold Antifade Reagent. A fluorescence image of CNV in the flat mount embedded on a glass slide was taken with a fluorescent microscope. The area of CNV was measured using an image processing software (Image pro exp). The areas of CNV in each group were analyzed by a test (t-test) for unpaired two groups. The significance level was 5% on both sides.

laser-induced CNV [2] = conditions: intravitreal administration, laser-induced CNV model of mouse; cited from earlier work
laser-induced CNV [3] = experiment: Laser-induced CNV models of rat: CNV area, flat mounts prepared 4 days after preparation of models; type: in vivo; set-up: key to Test results, CNV area vs. CS, t-test: N.S.: Not Significant (vs. CS), t-test; conditions: Test Example 19; for CNV area, mean: 5 μL/eye intravitreal once, flat mounts after 4 days, Compound 3 10 mg/ml in PBS, CS (about 40,000) 10 mg/mL in PBS
Protocol: BN/CrlCrlj rats (male, CHARLES RIVER LABORATORIES JAPAN, INC.) were used for the preparation of animal models. Under general anesthesia by intraperitoneal administration of an anesthetic mixture (saline:Somnopentyl=9:1) (about 2 mL/body), Mydrin-P ophthalmic solution was topically instilled to cause mydriasis in both eyes. The retina around the optic disk was irradiated with a laser beam to induce CNV. Used for the laser beam irradiation were SCOPISOL solution for eye, Fundus 5.4 mm Laser Lens, a laser photocoagulation device and a slit lamp illumination system. Immediately after the laser beam irradiation, 5 μL/eye of the test substance was administered once into the vitreous bodies of both eyes. Immediately after the administration, one drop of an antimicrobial drug (VEGAMOX Ophthalmic Solution 0.5%) was instilled.
After 10 days from the preparation, the models were euthanized with CO2. The eyeballs were extracted and immersed in 10% neutral buffered solution of formalin (room temperature, about 60 minutes). Eye cups were prepared, washed with PBS, dehydrated with methanol and immersed in PBS containing 1% bovine serum albumin and 0.5% Triton X-100 (room temperature, about 60 minutes). The retina was removed, and 60 μL of 0.5% fluorescein Griffonia simplicifolia lectin I, FITC-conjugate was added to the eye cups, and the eye cups were allowed to stand (under refrigeration, overnight). By this treatment, vascular endothelial cells of CNV were fluorescently stained with FITC-lectin. Eight slits were made radially in each of the eye cups to thereby obtain flat mounts. These flat mounts were washed twice with PBS containing 0.1% Triton X-100 and embedded on a glass slide with about 120 μL of Prolong Gold Antifade Reagent.
A fluorescence image of CNV in the flat mount embedded on a glass slide was taken with a fluorescent microscope. The area of CNV was measured using an image processing software (Image pro exp).
Laser-induced CNV models of rat were prepared, and neovascularization inhibitory effect was examined with respect to intravitreal administration of Compound 3.
Substantially the same procedure as in ? Method ? for Test Example 1 was repeated, except that flat mounts were prepared 4 days after the preparation of models, instead of 10 days after the preparation of models in Test Example 1.
The areas of CNV in each group were analyzed by a test (t-test) for unpaired two groups. The significance level was 5% on both sides.

Compound: O=C(Nc1ccc([N+](=O)[O-])cc1O)Nc1ccccc1Br [SB225002]
- Test results, CNV area vs. DMSO, t-test (laser-induced CNV [1]; Test Example 5): N.S.
- CNV area, mean (laser-induced CNV [1]; Test Example 5, Composition 31 containing 0.018, Composition 32 0.02 mg/mL of SB225002, SB225002 0.02 mg/mL in DMSO): 43121

Compound: Cc1ccc2c(c1)C1(CCN(CCc3nc(-c4ccccc4)oc3C)CC1)OC(=O)N2 [RS504393]
- Test results, CNV area vs. DMSO, t-test (laser-induced CNV [1]; Test Example 14): N.S.
- CNV area, mean (laser-induced CNV [1]; Test Example 14, Composition 37 containing 0.01 mg/mL of RS504393, RS504393 0.01 mg/mL in DMSO): 44137

Compound: heparan sulfate
- suppression of CNV (laser-induced CNV [2]): suppressed CNV

Compound: chondroitin sulfate [CS]
- Test results, CNV area vs. PBS, t-test (laser-induced CNV [1]; Test Example 18): N.S.
- CNV area, mean (laser-induced CNV [1]; Test Example 18, CS (average molecular weight about 140,000) 20 mg/mL in PBS): 30462
- inhibitory effects of CNV, as compared to PBS (laser-induced CNV [1]; Test Example 18, CS 20 mg/mL): did not show significant inhibitory effects of CNV
- CNV area, mean (laser-induced CNV [3]): 50236

Compound: Cc1ccc(S(=O)(=O)NC(=O)N2CCC(N3CCC(Oc4ccc(Cl)c(Cl)c4)CC3)CC2)cc1 [AZD3778]
- Test results, CNV area vs. DMSO, t-test (laser-induced CNV [1]; Test Example 8): N.S.
- CNV area, mean (laser-induced CNV [1]; Test Example 8, Composition 35 containing 0.1 mg/mL of AZD3778, AZD3778 0.1 mg/mL in DMSO): 43935

Compound: heparin
- suppression of CNV (laser-induced CNV [2]): suppressed CNV

Compound: NC(N)=NCCC[C@H](NC(=O)[C@@H]1Cc2ccccc2CN1C(=O)CCC(=O)c1ccccc1)C(=O)NCC1CCCCC1 [PS372424]
- CNV area, mean (laser-induced CNV [1]; Test Example 15, Composition 38 containing 0.091 mg/mL of PS372424, PS372424 0.1 mg/mL in DMSO): 36842

Compound: NC(=O)c1ccc(CNC(=O)NC[C@H]2CN(Cc3ccc(Cl)c(Cl)c3)CCO2)cc1 [GW766994]
- inhibitory effects of CNV, as compared to DMSO (laser-induced CNV [1]; GW766994 dissolved in DMSO, 2 mg/mL and 1.5 mg/mL (Test Examples 6 and 10), both concentrations): did not have inhibitory effects of CNV
- Test results, CNV area vs. DMSO, t-test (laser-induced CNV [1]; Test Example 6): N.S.
- CNV area, mean (laser-induced CNV [1]; Test Example 6, Composition 33 containing 2 mg/mL of GW766994, GW766994 2 mg/mL in DMSO): 41548
- Test results, CNV area vs. DMSO, Dunnett's test (laser-induced CNV [1]; Test Example 10): N.S.
- CNV area, mean (laser-induced CNV [1]; Test Example 10, Composition 6 containing 0.71, Composition 7 0.83 mg/mL of GW766994, GW766994 1.5 mg/mL in DMSO): 30795

Compound: 5β-Cholanic Acid-Introduced CS [Compound 3]
- Test results, CNV area vs. CS, t-test (laser-induced CNV [3]): N.S.
- inhibitory effects of CNV, as compared to CS (laser-induced CNV [3]): did not show significant inhibitory effects of CNV
- CNV area, mean (laser-induced CNV [3]): 51925

Compound: COC(=O)[C@H](Cc1ccc([N+](=O)[O-])cc1)NC(=O)c1cccc2ccccc12 [SB328437]
- CNV area, mean (laser-induced CNV [1]; Test Example 4, Compositions 14, 15, 16 containing 1.33, 1.67, 3.33 mg/mL of SB328437, SB328437 2 mg/mL in DMSO): 26040
- Test results, CNV area vs. DMSO, t-test (laser-induced CNV [1]; Test Example 9): * (P < 0.05)
- CNV area, mean (laser-induced CNV [1]; Test Example 9, Composition 36 containing 1 mg/mL of SB328437, SB328437 1 mg/mL in DMSO): 38911
